Here are results for 54 molecules from US12404268B2, “2-heteroaryl aminoquinazolinone derivative” (Sumitomo Pharma Co., Ltd., priority 2020, dated 2025).

This experiment relates to neurons induced to differentiate from SCN1A gene deficient human iPS cells. Kind of experiment: Test for measuring hyperexcitation suppression activity (spontaneous calcium oscillation frequency). Format: cell-based. The settings on record: Neuron; for IC50: SCN1A gene deficient human iPS cell-derived neurons, FLIPR Calcium 6, FDSS7000EX, read-out: IC50 (50% inhibitory concentration, frequency of spontaneous calcium oscillation). An excerpt: Test for Measuring Hyperexcitation Suppression Activity Using Neurons Induced to Differentiate from SCN1A Gene Deficient Human iPS Cells
(1) Induction of Differentiation from Human iPS cells to Neurons
Half of the culture solution was exchanged once every 3 to 4 days.
(2) Fluorescent Calcium Probe Treatment, Addition of Compound, and Evaluation of Intracellular Calcium Concentration
Half of the culture solution was removed on day 60 from induction of differentiation or thereafter. A medium for measurement comprising a fluorescent calcium probe (Molecular Device, product name: FLIPR Calcium 6 Assay Bulk Kit, cat #R8191) was added at an amount equal to the remaining medium. The culture was left standing for 30 minutes and subjected to measurement.
The test compounds were serially diluted with a dimethyl sulfoxide (DMSO) solution so that the final concentration would be 0.1 to 100 μM to prepare a concentrate with a concentration that is 6-fold of the final concentration.
The intensity of fluorescence of a calcium probe was measured over time with FDSS7000EX (Hamamatsu Photonics) to evaluate the change in intracellular calcium concentrations. First, the intensity of fluorescence was measured for 2 minutes. The compound solutions were then added using FDSS7000EX for an additional 8 minute measurement of fluorescence intensity. The frequency of spontaneous calcium oscillation was quantified as an indicator of nerve excitation. With the frequency for 2 minutes before the addition of the compound solutions as 100%, the ratio of frequency for the last 2 minutes after addition of the compound solutions was calculated.

Setting [1] is: Homo sapiens, read-out: inhibition rate.

Structures are written as SMILES.

In the case of `O=c1c2cc(F)ccc2nc(Nc2cccnc2)n1[C@H]1CC[C@H](O)CC1` [Example 180], under setting [1], the inhibition at 1 µM is 35%.

Consider `O=c1c2ncccc2nc(Nc2cccnc2)n1-c1ccccc1` [Example 191], for which the IC50 is more than 10 µM. For the molecule `O=c1c2cc(Cl)ccc2nc(Nc2ccc(F)cn2)n1-c1ccccc1` [Example 25], under setting [1], the inhibition at 10 µM worked out at 82%. On the same count and under the same terms, the result for `COc1ccc(Nc2nc3ccc(F)cc3c(=O)n2-c2ccccc2)nc1` [Example 149] reads 32%; that for `CN1[C@@H]2CC[C@H]1C[C@H](n1c(Nc3cccnc3)nc3ccc(F)cc3c1=O)C2` [Example 85], 59%. For the molecule `Cc1cccnc1Nc1nc2ccc(Cl)cc2c(=O)n1-c1ccccc1` [Example 26], the inhibition at 1 µM under setting [1] worked out at 23%. For `O=c1c2cc(F)cnc2nc(Nc2cccnc2)n1-c1ccccc1` [Example 162], under setting [1], the inhibition at 10 µM came to 39%. The same measure, in the same setting: the result for `CC(C)c1ccc(Nc2nc3ccc(Cl)cc3c(=O)n2-c2ccccc2)cn1` [Example 44] reads 81%. Consider `Cc1cnccc1Nc1nc2ccc(F)cc2c(=O)n1-c1ccccc1` [Example 132], for which the inhibition at 1 µM under setting [1] is 38%. Take `O=c1c2ccccc2nc(Nc2cccn3ccnc23)n1-c1ccccc1` [Example 66]: the inhibition at 10 µM under setting [1] worked out at 62%. With `O=c1c2cc(F)ccc2nc(Nc2cccnc2)n1-c1cccc(Cl)c1` [Example 134], the inhibition at 1 µM under setting [1] was found to be 56%. As to `O=c1c2ccccc2nc(Nc2ccon2)n1-c1ccccc1` [Example 232], the inhibition at 10 µM under setting [1] is 73%. For `O=c1c2cc(F)ccc2nc(Nc2cncc(C(F)(F)F)c2)n1-c1ccccc1` [Example 48], the inhibition at 1 µM under setting [1] was 55%.

With `CN1C[C@H]2CC[C@@H](C1)[C@@H]2n1c(Nc2cccnc2)nc2ccc(F)cc2c1=O` [Example 208], the IC50 was more than 100 µM.

As for `Cc1cccc(Nc2nc3ccc(F)cc3c(=O)n2-c2ccccc2)n1` [Example 138], the inhibition at 1 µM under setting [1] is 70%. On to `O=c1c2cc(Cl)ccc2nc(Nc2ccnnc2)n1-c1ccccc1` [Example 34], for which, under setting [1], the inhibition at 10 µM turned out to be 57%. Regarding `C[C@@H]1CN(C)CC[C@H]1n1c(Nc2cccnc2)nc2ccc(F)cc2c1=O` [Example 166], under setting [1], the inhibition at 10 µM was 36%. Turning to `CC(C)n1c(Nc2cccnc2)nc2ccc(F)cc2c1=O` [Example 59], the inhibition at 1 µM under setting [1] worked out at 39%. Regarding `Cc1cc2nc(Nc3cccnc3)n(-c3ccccc3)c(=O)c2cn1` [Example 193], the IC50 is more than 10 µM. Consider `COc1cccc(Nc2nc3ccc(F)cc3c(=O)n2-c2ccccc2)n1` [Example 130], for which, under setting [1], the inhibition at 1 µM worked out at 44%.

As to `O=c1c2cc(F)ccc2nc(Nc2cncc(F)c2)n1-c1ccccc1F` [Example 111, 6-fluoro-3-(2-fluorophenyl)-2-((5-fluoropyridin-3-yl)amino)quinazolin-4(3H)-one], the inhibition at 0.1 µM (Homo sapiens, @0.1 μM, read-out: inhibition rate) was 35%. On to `O=c1c2c(F)cccc2nc(Nc2cncc(F)c2)n1-c1ccccc1` [Example 117], for which, under setting [1], the inhibition at 100 µM amounted to 71%. `O=c1c2cc(F)ccc2nc(Nc2cccnc2)n1C1(c2ccccn2)CC1` [Example 206]: the IC50 is more than 100 µM. As for `O=c1c2cc(F)ccc2nc(Nc2cccnc2)n1C1CCCC1` [Example 60], under setting [1], the inhibition at 10 µM is 100%. As for `Cc1noc(C)c1-n1c(Nc2cccnc2)nc2ccc(F)cc2c1=O` [Example 195], the IC50 is more than 10 µM.

Turning to `O=c1c2cc(F)ccc2nc(Nc2cccnc2)n1-c1cccc(F)c1` [Example 123], the inhibition at 1 µM under setting [1] amounted to 56%. On the same count and under the same terms, to `Cc1ccc(Nc2nc3ccc(F)cc3c(=O)n2-c2ccccc2)cn1` [Example 30] belongs 67%. Same read-out and setting: to `O=c1c2cc(F)ccc2nc(Nc2cccnc2)n1C1CCC(F)(F)CC1` [Example 62] belongs 43%.

Regarding `CO[C@H]1CC[C@H](n2c(Nc3cccnc3)nc3ccc(F)cc3c2=O)CC1` [Example 200], the IC50 was more than 10 µM.

Regarding `COc1cncc(Nc2nc3ccc(Cl)cc3c(=O)n2-c2ccccc2)c1` [Example 218], the IC50 is more than 10 µM.

As to `O=c1c2ccc(F)cc2nc(Nc2cncc(F)c2)n1-c1ccccc1` [Example 226], the IC50 was more than 100 µM.

For the molecule `O=c1c2ccncc2nc(Nc2cccnc2)n1-c1ccccc1` [Example 192], the IC50 was more than 10 µM. As to `O=c1c2cc(Cl)ccc2nc(Nc2ccc(C(F)(F)F)cn2)n1-c1ccccc1` [Example 53], under setting [1], the inhibition at 10 µM is 79%. Regarding `O=c1c2cc(Cl)ccc2nc(Nc2nnco2)n1-c1ccccc1` [Example 228], the IC50 was more than 10 µM. In the case of `O=c1c2cc(F)ccc2nc(Nc2cccc(F)n2)n1-c1ccccc1` [Example 129], the inhibition at 1 µM under setting [1] was 50%. In the case of `O=c1c2cc(Cl)ccc2nc(Nc2ncns2)n1-c1ccccc1` [Example 230], the inhibition at 10 µM under setting [1] came to 2%. On the same count and under the same terms, to `O=c1c2cc(Cl)ccc2nc(Nc2ccncc2)n1-c1ccccc1` [Example 33] belongs 100%; to `COc1cncc(-n2c(Nc3cccnc3)nc3ccc(F)cc3c2=O)c1` [Example 185], 31%. Regarding `O=c1c2cc(F)ccc2nc(Nc2cccnc2)n1C1(c2ccccc2)COC1` [Example 168], the inhibition at 1 µM under setting [1] came out at 58%. `N#Cc1ccc2nc(Nc3cncc(F)c3)n(-c3ccccc3F)c(=O)c2c1` [Example 113, 3-(2-fluorophenyl)-2-((5-fluoropyridin-3-yl)amino)-4-oxo-3,4-dihydroquinazoline-6-carbonitrile]: the inhibition at 1 µM under setting [1] worked out at 91%. With `O=c1c2cc(Cl)ccc2nc(Nc2cncnc2)n1-c1ccccc1` [Example 6], the IC50 stood at 0.4 µM. In the case of `Cc1ccc2nc(Nc3cccnc3)n(-c3ccccc3)c(=O)c2n1` [Example 198], the IC50 was more than 10 µM. Consider `Cc1ccc(Nc2nc3ccc(F)cc3c(=O)n2-c2ccccc2)nc1` [Example 137, 6-fluoro-2-((5-methylpyridin-2-yl)amino)-3-phenylquinazolin-4(3H)-one], for which the inhibition at 1 µM under setting [1] was 85%. For the molecule `CC(C)n1c(Nc2cccnc2)nc2ccccc2c1=O` [Example 55], the inhibition at 10 µM under setting [1] was 88%. For `O=c1c2ccccc2nc(Nc2ccn3ccnc3c2)n1-c1ccccc1` [Example 70], the inhibition at 1 µM under setting [1] was 58%. On to `O=c1c2ccccc2nc(Nc2cccnc2)n1C1CCCC1` [Example 56], for which the inhibition at 10 µM under setting [1] was 100%. For the molecule `COc1cccc2nc(Nc3cccnc3)n(-c3ccccc3)c(=O)c12` [Example 92], under setting [1], the inhibition at 100 µM was 38%. As to `Cc1ccccc1-n1c(Nc2cccnc2)nc2cccc(F)c2c1=O` [Example 120], the inhibition at 1 µM under setting [1] was found to be 69%. Take `O=c1c2cc(F)ccc2nc(Nc2cccnc2)n1[C@H]1CCCOC1` [Example 164]: the inhibition at 10 µM under setting [1] stood at 92%. With `Cn1ncc2ccc(Nc3nc4ccccc4c(=O)n3-c3ccccc3)cc21` [Example 54, 2-((1-methyl-1H-indazol-6-yl)amino)-3-phenylquinazolin-4(3H)-one], under setting [1], the inhibition at 1 µM came to 95%. Take `Cc1ccc(Nc2nc3ccc(Cl)cc3c(=O)n2-c2ccccc2)cn1` [Example 8]: the IC50 was 1 µM. Take `O=c1c2cc(F)ccc2nc(Nc2ccncc2F)n1-c1ccccc1` [Example 140]: the inhibition at 1 µM under setting [1] amounted to 46%. For the molecule `O=c1c2cc(F)ccc2nc(Nc2cnccn2)n1-c1ccccc1` [Example 39, 6-fluoro-3-phenyl-2-(pyrazin-2-ylamino)quinazolin-4(3H)-one], the inhibition at 1 µM under setting [1] was 100%. For the molecule `O=c1c2cc(F)ccc2nc(Nc2cnsc2)n1-c1ccccc1` [Example 178], the inhibition at 10 µM under setting [1] came out at 76%.

In general, inhibition refers to the change of the read-out against control, counted positive when it falls.
